{
  "source": "patent US10118901B2",
  "about": "(priority 2013, dated 2018)",
  "key": {"[1]": {"target": "HDAC enzymes (Hela Nuclear Extract)", "assay_type": "biochemical"}, "[2]": {"assay": "Water solubility", "assay_type": "physicochemical", "conditions": "thermodynamic from solid; distilled water at room temperature, visual inspection", "method": "To measure water solubility, to approximately 10 mg of a sample in a tube-stoppered 10 mL graduated cylinder, increasing volumes of distilled water at room temperature were added according to the steps shown in the table below:\nAfter each addition of water to give the indicated total volume, the mixture was vortexed or sonicated for 1 min and was visually inspected for any undissolved parts of the sample. If, after a total of 10 mL of water had been added (step 5), the sample or parts of it remained undissolved, the contents of the measuring cylinder was transferred to a 100 mL measuring cylinder which was then filled up with water up to 100 mL (20 ml, 25 ml, 50 ml, 100 ml) and shaken. The approximate solubility was given in the table under that volume of added water in which complete dissolution of the sample occurred. If the substance was still apparently insoluble, further dilution was undertaken to ascertain whether the column elution or the flask solubility method should be used."}, "[3]": {"tested_on": "60 cancer cell lines", "assay": "NCI-60 DTP human tumor cell line screen at 10 μM, whole panel", "assay_type": "cell-based", "conditions": "for Growth %, Median: 10 μM single dose, median over cell lines; for mean growth percent in the 60 cancer cell lines: single dose of about 10 μM", "method": "(§1) NL-101 and CY-102 was sent to U.S. National Cancer Institute (NCI) for NCI 60-cell line screening using a single compound dose (10 μM).\nThe human tumor cell lines of the cancer screening panel were grown in RPMI 1640 medium containing 5% fetal bovine serum (5% FBS) and 2 mM L-glutamine. For a typical screening experiment, cells were inoculated into 96-well microtiter plates in 100 μL, at plating densities ranging from 5,000 to 40,000 cells/well depending on the doubling time of individual cell lines. After cell inoculation, the microtiter plates were incubated at 37° C., 5% CO2, 95% air, and 100% relative humidity for 24 h prior to addition of experimental compounds. After 24 hr, two plates of each cell line were fixed in situ with TCA, to represent a measurement of the cell population for each cell line at the time of drug addition (Tz). Experimental drugs were solubilized in dimethyl sulfoxide at 400-fold the desired final maximum test concentration and stored frozen prior to use. At the time of drug addition, an aliquot of frozen concentrate was thawed and diluted to twice the desired final maximum test concentration with complete medium containing 50 μg/ml gentamicin. Aliquots of 100 μL of these different drug dilutions were added to the appropriate microtiter wells already containing 100 μL of medium, resulting in the required final drug concentrations.\nFollowing drug addition, the plates were incubated for an additional 48 hrs at 37° C., 5% CO2, 95% air, and 100% relative humidity. For adherent cells, the assay was terminated by the addition of cold TCA. Cells were then fixed in situ by the gentle addition of 50 μL of cold 50% (w/v) TCA (final concentration, 10% TCA) and incubated for 60 minutes at 4° C. The supernatant was discarded, and the plates were washed five times with tap water and air dried. Sulforhodamine B (SRB) solution (100 μL) at 0.4% (w/v) in 1% acetic acid was added to each well, and plates were incubated for 10 minutes at room temperature. After staining, unbound dye was removed by washing five times with 1% acetic acid and the plates were air dried. Bound stain was subsequently solubilized with 10 mM trizma base, and the absorbance was read on an automated plate reader at a wavelength of 515 nm. […]\n(§2) Using the seven absorbance measurements [time zero, (Tz), control growth, (C), and test growth in the presence of drug at the 10 μM concentration levels (Ti)], percentage growth was calculated at each of the drug concentrations levels. Percentage growth inhibition was calculated as: [(Ti−Tz)/(C−Tz)]×100 for which Ti>/=Tz or [(Ti−Tz)/Tz]×100 for which Ti<Tz."}, "[4]": {"tested_on": "OVCAR-4", "assay": "NCI-60 screen at 10 μM: OVCAR-4", "assay_type": "cell-based, human", "conditions": "Ovarian Cancer OVCAR-4; 10 μM single dose; 48 hrs", "method": "as §1\n(§3) The human tumor cell lines of the cancer screening panel were grown in RPMI 1640 medium containing 5% fetal bovine serum (5% FBS) and 2 mM L-glutamine. For a typical screening experiment, cells were inoculated into 96-well microtiter plates in 100 μL, at plating densities ranging from 5,000 to 40,000 cells/well depending on the doubling time of individual cell lines. After cell inoculation, the microtiter plates were incubated at 37° C., 5% CO2, 95% air, and 100% relative humidity for 24 h prior to addition of experimental compounds. […]\n(§4) Following drug addition, the plates were incubated for an additional 48 hrs at 37° C., 5% CO2, 95% air, and 100% relative humidity. […] Bound stain was subsequently solubilized with 10 mM trizma base, and the absorbance was read on an automated plate reader at a wavelength of 515 nm. […]\nas §2"}, "[5]": {"tested_on": "NCI/ADR-RES", "assay": "NCI-60 screen at 10 μM: NCI/ADR-RES", "assay_type": "cell-based, human", "conditions": "Ovarian Cancer NCI/ADR-RES; 10 μM single dose; 48 hrs", "method": "as §1, §3, §4, §2"}, "[6]": {"tested_on": "ACHN", "assay": "NCI-60 screen at 10 μM: ACHN", "assay_type": "cell-based, human", "conditions": "Renal Cancer ACHN; 10 μM single dose; 48 hrs", "method": "as §1, §3, §4, §2"}, "[7]": {"tested_on": "CAKI-1", "assay": "NCI-60 screen at 10 μM: CAKI-1", "assay_type": "cell-based, human", "conditions": "Renal Cancer CAKI-1; 10 μM single dose; 48 hrs", "method": "as §1, §3, §4, §2"}, "[8]": {"tested_on": "SN12C", "assay": "NCI-60 screen at 10 μM: SN12C", "assay_type": "cell-based, human", "conditions": "Renal Cancer SN12C; 10 μM single dose; 48 hrs", "method": "as §1, §3, §4, §2"}, "[9]": {"tested_on": "MDA-MB-231", "assay": "NCI-60 screen at 10 μM: MDA-MB-231", "assay_type": "cell-based, human", "conditions": "Breast Cancer MDA-MB-231; 10 μM single dose; 48 hrs", "method": "as §1, §3, §4, §2"}, "[10]": {"tested_on": "HS 578T", "assay": "NCI-60 screen at 10 μM: HS 578T", "assay_type": "cell-based, human", "conditions": "Breast Cancer HS 578T; 10 μM single dose; 48 hrs", "method": "as §1, §3, §4, §2"}, "[11]": {"tested_on": "T-47D", "assay": "NCI-60 screen at 10 μM: T-47D", "assay_type": "cell-based, human", "conditions": "Breast Cancer T-47D; 10 μM single dose; 48 hrs", "method": "as §1, §3, §4, §2"}, "[12]": {"target": "hERG (Human Ether-á-go-go-Related-Gene) (Homo sapiens, UniProt Q12809)", "sequence (Q12809 whole entry)": "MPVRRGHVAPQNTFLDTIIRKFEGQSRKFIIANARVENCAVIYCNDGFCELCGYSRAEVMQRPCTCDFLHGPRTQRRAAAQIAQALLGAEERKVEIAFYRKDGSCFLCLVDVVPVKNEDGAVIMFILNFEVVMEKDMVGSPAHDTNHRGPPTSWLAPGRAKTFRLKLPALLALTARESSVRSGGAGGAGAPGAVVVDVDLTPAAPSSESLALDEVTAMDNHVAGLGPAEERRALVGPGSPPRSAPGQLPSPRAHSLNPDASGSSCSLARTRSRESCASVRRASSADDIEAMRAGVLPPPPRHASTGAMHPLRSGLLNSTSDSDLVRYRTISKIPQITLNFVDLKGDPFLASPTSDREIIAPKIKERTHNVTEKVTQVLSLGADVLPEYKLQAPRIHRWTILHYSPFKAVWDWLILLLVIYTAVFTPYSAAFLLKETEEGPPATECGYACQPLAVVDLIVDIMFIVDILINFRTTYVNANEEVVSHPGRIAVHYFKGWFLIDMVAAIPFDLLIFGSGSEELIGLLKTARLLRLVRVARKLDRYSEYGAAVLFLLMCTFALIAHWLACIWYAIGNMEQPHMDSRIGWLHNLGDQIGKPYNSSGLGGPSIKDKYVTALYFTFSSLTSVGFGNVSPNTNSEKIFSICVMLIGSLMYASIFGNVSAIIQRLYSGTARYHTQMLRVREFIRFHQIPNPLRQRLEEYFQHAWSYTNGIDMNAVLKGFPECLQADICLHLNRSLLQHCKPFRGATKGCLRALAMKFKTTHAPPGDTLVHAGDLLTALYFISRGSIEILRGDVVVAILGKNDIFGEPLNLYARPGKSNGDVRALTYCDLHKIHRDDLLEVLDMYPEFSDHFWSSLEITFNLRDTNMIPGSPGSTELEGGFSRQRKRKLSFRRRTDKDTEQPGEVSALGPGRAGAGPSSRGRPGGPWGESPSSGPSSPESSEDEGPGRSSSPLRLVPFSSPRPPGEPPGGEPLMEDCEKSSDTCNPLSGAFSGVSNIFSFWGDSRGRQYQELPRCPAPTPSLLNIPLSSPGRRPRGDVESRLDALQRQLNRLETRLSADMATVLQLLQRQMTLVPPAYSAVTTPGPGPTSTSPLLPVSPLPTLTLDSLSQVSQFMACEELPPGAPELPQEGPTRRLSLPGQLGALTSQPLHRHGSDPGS"}, "[13]": {"tested_on": "NCI-60 cell lines", "assay": "NCI-60 cell line panel screening of NL-101 (NSC#751447)", "assay_type": "cell-based, human"}, "[14]": {"tested_on": "CCRF-CEM", "assay": "NCI-60 screen at 10 μM: CCRF-CEM", "assay_type": "cell-based, human", "conditions": "Leukemia CCRF-CEM; 10 μM single dose; 48 hrs", "method": "as §1, §3, §4, §2"}, "[15]": {"tested_on": "EKVX", "assay": "NCI-60 screen at 10 μM: EKVX", "assay_type": "cell-based, human", "conditions": "NSCLC EKVX; 10 μM single dose; 48 hrs", "method": "as §1, §3, §4, §2"}, "[16]": {"tested_on": "NCI-H522", "assay": "NCI-60 screen at 10 μM: NCI-H522", "assay_type": "cell-based, human", "conditions": "NSCLC NCI-H522; 10 μM single dose; 48 hrs", "method": "as §1, §3, §4, §2"}, "[17]": {"tested_on": "SF-539", "assay": "NCI-60 screen at 10 μM: SF-539", "assay_type": "cell-based, human", "conditions": "CNS Cancer (Glioma) SF-539; 10 μM single dose; 48 hrs", "method": "as §1, §3, §4, §2"}},
  "data": [
    {"molecule": "Cn1c(CCNCc2ccc(/C=C/C(=O)NO)cc2)nc2cc(N(CCCl)CCCl)ccc21", "note": "[CY-102]", "values": [
      {"measurement": "IC50", "setting": "[1]; Hela nuclear extract, N/A* = No HDAC activity up to highest testing concentration of 10 μM", "result": 0.0035, "unit": "µM"},
      {"measurement": "fold more potent than SAHA in the HDAC (nuclear extract) assay", "setting": "[1]; versus SAHA", "result": "about 10 fold"},
      {"measurement": "solubility at 1 min", "setting": "[2]", "result": "> 20", "unit": "mg/mL"},
      {"measurement": "Growth %, Median", "setting": "[3]", "result": "−28.5", "unit": "%"},
      {"measurement": "mean growth percent in the 60 cancer cell lines", "setting": "[3]", "result": "−28", "unit": "%"},
      {"measurement": "Growth %", "setting": "[4]", "result": "−19.00", "unit": "%"},
      {"measurement": "Growth %", "setting": "[5]", "result": 17.78, "unit": "%"},
      {"measurement": "Growth %", "setting": "[6]", "result": "−19.97", "unit": "%"},
      {"measurement": "Growth %", "setting": "[7]", "result": "−25.49", "unit": "%"},
      {"measurement": "Growth %", "setting": "[8]", "result": "−1.53", "unit": "%"},
      {"measurement": "Growth %", "setting": "[9]", "result": "−35.33", "unit": "%"},
      {"measurement": "Growth %", "setting": "[10]", "result": 8.17, "unit": "%"},
      {"measurement": "Growth %", "setting": "[11]", "result": "−27.48", "unit": "%"},
      {"measurement": "fold less cardiotoxicity compared to NL-101 (hERG assay)", "setting": "[12]", "result": "5-10 fold"}
    ]},
    {"molecule": "Cn1c(CCCCCCC(=O)NO)nc2cc(N(CCCl)CCCl)ccc21", "note": "[NL-101]", "values": [
      {"measurement": "IC50", "setting": "[13]; Homo sapiens, on average, read-out: average cellular IC50 in the 60 cancer cell lines", "result": "~2", "unit": "µM"},
      {"measurement": "fold more potent than Bendamustine in the NCI-60 cell lines", "setting": "[13]; versus Bendamustine", "result": "25-100 fold"},
      {"measurement": "Growth %, Median", "setting": "[3]", "result": 36.35, "unit": "%"},
      {"measurement": "mean growth percent in the 60 cancer cell lines", "setting": "[3]", "result": 36, "unit": "%"},
      {"measurement": "Growth %", "setting": "[14]", "result": 17.16, "unit": "%"},
      {"measurement": "Growth %", "setting": "[15]", "result": 92.48, "unit": "%"},
      {"measurement": "Growth %", "setting": "[16]", "result": "−5.90", "unit": "%"},
      {"measurement": "Growth %", "setting": "[17]", "result": 23.72, "unit": "%"},
      {"measurement": "Growth %", "setting": "[4]", "result": 68.52, "unit": "%"},
      {"measurement": "Growth %", "setting": "[5]", "result": 77.80, "unit": "%"},
      {"measurement": "Growth %", "setting": "[6]", "result": 14.30, "unit": "%"},
      {"measurement": "Growth %", "setting": "[7]", "result": 27.64, "unit": "%"},
      {"measurement": "Growth %", "setting": "[8]", "result": 17.91, "unit": "%"},
      {"measurement": "Growth %", "setting": "[9]", "result": 72.24, "unit": "%"},
      {"measurement": "Growth %", "setting": "[10]", "result": 24.01, "unit": "%"},
      {"measurement": "Growth %", "setting": "[11]", "result": "−16.57", "unit": "%"}
    ]}
  ]
}
